In general, melting point refers to the temperature, or range, at which the solid turns liquid. `O=CN(O)C(CS(=O)(=O)c1ccc(-c2ccc(C(F)(F)F)cc2)cc1)c1cccnc1` (centres undefined) displayed a melting point of 186 to 189 °C. The same measure for `CCOCc1cccc2[nH]cc(C(COC)C(C(=O)OCC)[N+](=O)[O-])c12` (centres undefined): 118 to 120 °C; for `CCn1c(=O)n(C)c(=O)c2c(C(=O)N3C[C@](C)(O)CO3)c(Cn3c(C)nc(Cl)c3Cl)sc21`: 130 to 133 °C; for `N#Cc1cc(NC(=O)c2cc3ccccc3s2)ccc1N1CCC(O)CC1`: 224 to 225 °C. `CN(c1cccnc1Cl)S(=O)(=O)c1ccccc1[N+](=O)[O-]` had a melting point of 116 to 118 °C. `Oc1cccc2[nH]c(-c3ccccc3)cc12` gave a melting point of 120 to 123 °C. On to `CNCCc1[nH]c2ccccc2c1-c1ccccc1`, for which the melting point lay within 148 to 151 °C. In turn, `FC(F)(F)c1cccc(CCc2nnc(-c3ccc4nccn4c3)o2)c1` had a melting point of 152 to 153 °C.

In the case of `CCOC(=O)C1(Cc2ccc(OC)cc2)CCCC1`, the melting point is 63.5 to 64.5 °C. Then `COc1ccc(NCC(C)C#N)c([N+](=O)[O-])c1` (centres undefined), with 114 to 115 °C; and `N#Cc1cc(Cl)c(NC(=O)NC(=O)c2c(F)cccc2F)cc1Cl`, with 238 to 240 °C. Compound `NC(=O)CCc1cnoc1-c1ccccc1` displayed a melting point of 151 to 152 °C. The compound `CCC(=O)Oc1ccc(C(=O)Nc2ccc3cc(CN4CCCC4)cnc3c2C)cc1` yielded a melting point of 146 to 147 °C. On to `CC(/C=C/C=C(\C)C1=Cc2cc(C(C)(C)C)cc(C)c2OC1)=C\C(=O)O`, for which the melting point lay in the range of 227 to 228 °C. Take `O=c1cc(N2CCOCC2)oc2c(O)cccc12`: the melting point was in the range of 240 to 247 °C. The same measure for `CCn1c(=O)c2c(nc(/C=C/c3ccc(OC(=O)c4ccccc4)cc3)n2C)n(CC)c1=O`: 208 to 209 °C; for `CCNc1ccc(C2(C)C(=O)c3c(Cl)cc(Cl)cc3N(Cc3ccccc3)C2=O)cc1` (centres undefined): 148 to 149 °C.

`CCCCNC(=N)NC(=O)NCCCC` yielded a melting point of 82 to 94 °C. The same measure for `C=CCCn1c2ccc(OC)cc2c2c3c(c(-c4ccccc4Cl)cc21)C(=O)N(Cc1ccc(OC)cc1OC)C3=O`: 161 to 164 °C; for `COc1ccc(C2=NN(C3CCN(C(=O)CS(C)(=O)=O)CC3)C(=O)[C@@H]3CC=CC[C@H]23)cc1OC`: 169 to 170 °C. In turn, `CCc1nn(C2CCCCC2)c2cc(C(=O)Nc3c(Cl)cncc3Cl)ccc12` yielded a melting point of 124 to 127 °C. The same measure for `Cc1c(O[Si](C)(C)C(C)(C)C)cc(O[Si](C)(C)C(C)(C)C)c(C)c1C(=O)OCc1ccc([N+](=O)[O-])cc1`: 121 to 122 °C; for `O=C(c1ccccc1)n1c2c(c3ccccc31)CC(C(=O)O)(C(=O)O)CC2`: 160 °C; for `Cc1ccc2c(c1)C1=NNC(=O)CC1CS2` (centres undefined): 217 to 219 °C. `C#Cc1ccc(C(=O)OC(C)(C)C)cc1`: the melting point lay within 71.5 to 72 °C.

On to `Cc1nc2c(n1C)C(=O)c1ccccc1C2=O`, for which the melting point was above 253 °C. Compound `CN(CCCNc1ncc(Cc2ccc(Cl)cc2)c(=O)[nH]1)c1ccccn1` yielded a melting point of 65 °C. Compound `COc1cc2ncc(C#N)c(Nc3ccccc3C)c2cc1OC` gave a melting point of 137 to 141 °C. Consider `CC(Cc1cc2ccccc2[nH]1)(NC(=O)OC1C2CC3CC(C2)CC1C3)C(=O)NCC(N)c1ccccc1` (centres undefined), for which the melting point lay in the range of 96 to 102 °C. `c1ccc(-c2nn[nH]c2-c2ccccc2)cc1` yielded a melting point of 131 °C.

`CCn1nc(C(F)(F)F)c(CS(=O)(=O)C2=NOC(C)(CCl)C2)c1S(C)(=O)=O` (centres undefined) had a melting point of 113 to 114 °C. On to `COC(=O)C(Cc1ccccc1)NC(=O)C(CC(=O)O)NC(=O)CC(C)=O` (centres undefined), for which the melting point lay within 118 to 121 °C.

For `Nc1ccc(N2CCN(CC(O)(Cn3cncn3)c3ccc(Cl)cc3Cl)CC2)cc1` (centres undefined), the melting point stood at 60 °C.

As to `CNC(=N[N+](=O)[O-])N(Cc1cnc(Cl)s1)C(C)=O`, the melting point was in the range of 105 to 106 °C.

The values are drawn from a melting point compilation (Tetko et al.; mined from patent text by program, amines drawn as free bases though some values may be those of a salt).
